Assay results reported in US8697653B2, “Microparticle formulation for pulmonary drug delivery of anti infective molecule for treatment of infectious diseases” (priority 2010, dated 2014).
Each block holds one compound with its values, some of them ahead of it.

How the values were obtained:
[1] = Antimicrob. Agents Chemother., 1999, 37, 281-286; cited from earlier work
[2] = Pulmonary bioavailability, nose-only exposure lung deposition (Example 21); format: in vivo, Guinea pigs; settings: 3 mg/kg
Description: (§1) The assay was done as reported in The AAPS Journal, 2005, 7 (1), E20-E41.
A nose-only exposure in vivo lung deposition study was carried out as per the reference mentioned. Guinea pigs were divided in two groups. Group 1 received unformulated compound of formula I (3 mg/kg) and group 2 received formulation of Example 9 Method A (3 mg/kg). The unformulated compound of formula I and formulation of Example 9 Method A were aerosolized and the nose-only exposure was carried out using jet nebulizer wherein the nebulization period was one hour. Following aerosol administration, the animals were sacrificed at 1 hour, 2 hours, 6 hours, 12 hours and 24 hours post aerosol exposure and the lungs were collected and analyzed to quantitate the amount of compound of formula I (ng/g) deposited in the lung by LC-MS.

[3] = Physical properties: solubility in solvents and water; format: physicochemical; settings: chloroform, ethyl acetate, methanol, water
Description: • Column: Eurospher RP-18, (3μ, 4.6×125 mm) • Solvent system: Gradient (0% acetonitrile to 100% in 15 minutes against water, followed by 100% acetonitrile for 5 minutes) • Flow rate: 1 mL/minute • Detection (UV): 245 nm • Retention time: compound of formula I (12 to 13 minutes) Physical & Spectral properties of the compound of formula I: • Appearance: White powder • Melting point: 240° C.

rat alveolar macrophages = test: In vitro macrophage uptake assay; format: cell-based
Description: The assay was carried out based on the reference Respiratory Research, 2009, 10, 44.
Bronchoalveolar lavage washings from the rats were taken after appropriate ethical permission. Sterile warmed saline was introduced into the lung and then removed by suction. Bronchoalveolar lavage fluid was transported on icepacks (usually 100 to 200 mL of bronchoalveolar lavage fluid per donor is desired). The fluid was subjected to centrifugation at 250 g for 10 minutes and the cells were collected. Pooled the cell pellets by resuspending the cells in a total of 10 mL of HBSS. 100 μL aliquot was removed and stained with Wright-Giemsa stain to do a differential cell count. The cell count was adjusted and plated the cells in macrophage culture medium (HAM F12 medium, Amimed, Switzerland). 0.5 mL of the cell suspension was added to each of the 6 well tissue culture plates with 0.5 mL of the macrophage culture medium. The cells were incubated for 24 hours at 37° C. and 5% CO2. Cell adherence and cell growth was evaluated and treated with the formulation of Example 9 Method A tagged with sulforhodamine dye. Post treatment the cells were evaluated for fluorescence. This fluorescence results for selective uptake of the formulation by the alveolar macrophages.

[4] = tested on: MRC5, L929 and A549 cell lines; test: In vitro cytocompatibility assay, all cell lines evaluated; format: cell-based; settings: all the different cell lines evaluated
Description: The assay was carried out based on the reference Journal of Biomedical Materials Research, 2009, […], 281-292. This assay was performed to evaluate the cytocompatibility of the formulation of Example 9 Method A with the relevant cell lines and standard cells which are specified by the regulatory agencies. Cell density: 10,000/well for MRC 5 and […], and 3000/well for A549 Time points: 24 hours and 48 hours. The toxicological evaluation was done using The CellTiter 96 Aqueous One Solution Assay by Promega (Cat. no: G3582). The assay is a standard colorimetric method for determining the number of viable cells in proliferation or cytotoxicity assays. The MTS used in the assay is bioreduced by cells into a colored formazan product that is soluble in tissue culture medium. The quantity of formazan product as measured by the amount of 490 nm absorbance is directly proportional to the number of living cells in culture. […] The ELISA 96-well plate was then subjected to absorbance recordings at 490 nm (450-540 nm) with a 96-well plate reader. The average 490 nm absorbance from the “no-cell” control was subtracted from all other absorbance values and the corrected absorbance was utilized for further calculations. (Background absorbance from “no-cell” control is typically 0.2 to 0.3 absorbance units after 4 hours of incubation).

[5] = Dose scheduling, nose-only exposure lung deposition (Example 23); format: in vivo, Guinea pigs; settings: 3 mg/kg, regimen not stated
Description: To evaluate dose scheduling of the formulation of Example 9 Method A The assay was done as reported in The AAPS Journal, 2005, 7 (1), E20-E41.
(§2) A nose-only exposure in vivo lung deposition study was carried out as per the reference mentioned. Guinea pigs were divided in three groups. Group 1 received unformulated compound of formula I (3 mg/kg); group 2 received formulation of Example 9 Method A (3 mg/kg) once a day for one day and group 3 received formulation of Example 9 Method A (3 mg/kg) twice a day for one day. The unformulated compound of formula I and formulation of Example 9 Method A were aerosolized and the nose-only exposure was carried out using jet nebulizer. The animals were sacrificed and the lungs were collected and analyzed to quantitate the amount of compound of formula I (ng/g) deposited in the lung by LC-MS. LC-MS conditions are as provided in Tables 15, 16 and 17 of Example 21.

[6] = Estimation of solubility in simulated lung fluid (SLF, pH 7.4) by HPLC; format: physicochemical; settings: fassgf or other biorelevant, thermodynamic from solid
Description: SLF was prepared by method based on Respiratory Physiology & Neurobiology, 2008, 162, 73-79. 9 g of sodium chloride, 0.220 g of calcium chloride and 6.5 g of lactose were dissolved in 1000 mL of water. The pH of the resultant solution was adjusted to 7.4. Solubility of compound of formula I in SLF was measured at two temperatures, 45° C. and 60° C. For this, 1 mg of compound of formula I was added to 3 mL of SLF (in duplicates) and after vortexing for few seconds was incubated in water bath set at the required temperatures. Solubility was measured at one hour intervals for three hours. The solution was filtered through 0.22 μm filter and the filtrate was injected on HPLC. Solubility was calculated with respect to appropriate calibration curve.

[7] = Cumulative accumulation after once a day dosing for 5 days (Example 22); parameters: species or system Guinea pigs; settings: guinea pig, in vivo; lung, 3 mg/kg, 1 hour nebulization everyday for five consecutive days, sacrificed on 6th day; read-out: Compound of formula I deposited
Description: Evaluation of cumulative accumulation of formulation of Example 9 Method A after once a day dosing for 5 days for nebulization exposure period of 1 hour/day The assay was done as reported in The AAPS Journal, 2005, 7 (1), E20-E41.
as §2, with “in two” for “in three”, “(3 mg/kg) and” for “(3 mg/kg);”, “(3 mg/kg).” for “(3 mg/kg) once a day for one day and group 3 received formulation of Example 9 Method A (3 mg/kg) twice a day for one day.”, “jet nebulizer wherein the nebulization period was one hour everyday for five consecutive days and the” for “jet nebulizer. The”, “sacrificed on 6th day. The” for “sacrificed and the”

[8] = Pilot in vivo lung deposition study (Example 20); parameters: species or system Guinea pigs; settings: guinea pig, lungs, 10 mg/kg aerosolized, passive breathing, read-out: compound of formula I deposited
Description: as §1
A pilot in vivo lung deposition study was carried out as per the reference mentioned. Guinea pigs were divided in three groups. Group 1 received formulation of Example 9 Method A, group 2 received unformulated compound of formula I and group 3 was untreated (naïve group). 10 mg/kg of the formulation was aerosolized and the animals were allowed to breathe passively. Following administration of the formulation of Example 9 Method A the animals were sacrificed at 30 minutes time point. The lungs were collected and analyzed by HPLC.

SMILES: CN[C@H](CC(C)C)C(=O)N[C@H]1C(=O)N[C@@H](CC(N)=O)C(=O)N[C@H]2C(=O)N[C@H]3C(=O)N[C@H](C(=O)N[C@H](C(=O)O)c4cc(O)cc(O)c4-c4cc3ccc4O)[C@H](O)c3ccc(c(Cl)c3)Oc3cc2cc(c3O[C@@H]2O[C@H](CO)[C@@H](O)[C@H](O)[C@H]2O[C@H]2C[C@](C)(N)[C@H](O)[C@H](C)O2)Oc2ccc(cc2Cl)[C@H]1O [Vancomycin]
Lung concentrations as % of the plasma concentrations [1]: 20%

Ability to reach the lungs on nebulization (in words) ([2]; nose-only nebulization): unable to reach the lungs
concentration at 1 h ([2]; guinea pig, in vivo, lung, nose-only, 1 hour nebulization, 1 hour post exposure, read-out: Compound of formula I deposited): 1 ng/g
concentration at 2 h ([2]; guinea pig, in vivo, lung, nose-only, 1 hour nebulization, 2 hours post exposure, read-out: Compound of formula I deposited): 1 ng/g
concentration at 6 h ([2]; guinea pig, in vivo, lung, nose-only, 1 hour nebulization, 6 hours post exposure, read-out: Compound of formula I deposited): 1 ng/g
concentration at 12 h ([2]; guinea pig, in vivo, lung, nose-only, 1 hour nebulization, 12 hours post exposure, read-out: Compound of formula I deposited): 1 ng/g
concentration at 24 h ([2]; guinea pig, in vivo, lung, nose-only, 1 hour nebulization, 24 hours post exposure, read-out: Compound of formula I deposited): 1 ng/g
Uptake by alveolar macrophages (in words) (rat alveolar macrophages): does not show active uptake
Compound concentration in alveolar macrophages (rat alveolar macrophages; 30 minutes): 2.01 µg/mL
Compound concentration in alveolar macrophages (rat alveolar macrophages; 60 minutes): 2.01 µg/mL
Compound concentration in alveolar macrophages (rat alveolar macrophages; 120 minutes): 1.99 µg/mL
Compound of formula I deposited [5]: 0 ng/g
solubility at 1 h ([6]; SLF pH 7.4, 45° C.): 1.3 µg/mL
solubility at 2 h ([6]; SLF pH 7.4, 45° C.): 0.9 µg/mL
solubility at 3 h ([6]; SLF pH 7.4, 45° C.): 1.2 µg/mL
solubility at 1 h ([6]; SLF pH 7.4, 60° C.): 0.6 µg/mL
solubility at 2 h ([6]; SLF pH 7.4, 60° C.): 0.7 µg/mL
solubility at 3 h ([6]; SLF pH 7.4, 60° C.): 1.3 µg/mL
concentration at 6 day [7]: 1 ng/g
concentration at 30 min [8]: 0 ng/g
SMILES: C=C(NC(=O)C(=C)NC(=O)c1csc(C2=NC3c4csc(n4)C4NC(=O)c5csc(n5)C(C(C)(O)C(C)O)NC(=O)C5CSC(=N5)/C(=C\C)NC(=O)C(C(C)O)NC(=O)c5csc(n5)C3(CC2)NC(=O)C(C)NC(=O)C(=C)NC(=O)C(C)NC(=O)C(C(C)C)NC2C=Cc3c(C(C)O)cc(nc3C2O)C(=O)OC4C)n1)C(N)=O (stereo not shown) [Compound of formula I]
Solubility (in words) [3]: Soluble in chloroform, ethyl acetate, methanol and insoluble in water
Cytotoxicity (in words) [4]: exhibited cytotoxicity
